The source of these data is ChEMBL document CHEMBL2074231, “Influence of molecular structure on substrate binding to the human organic cation transporter, hOCT1” (Mol Pharmacol, 2003).

For this experiment, the target named is T1, Solute carrier family 22 member 1 (Homo sapiens, UniProt O15245).
T1 sequence (O15245 whole entry): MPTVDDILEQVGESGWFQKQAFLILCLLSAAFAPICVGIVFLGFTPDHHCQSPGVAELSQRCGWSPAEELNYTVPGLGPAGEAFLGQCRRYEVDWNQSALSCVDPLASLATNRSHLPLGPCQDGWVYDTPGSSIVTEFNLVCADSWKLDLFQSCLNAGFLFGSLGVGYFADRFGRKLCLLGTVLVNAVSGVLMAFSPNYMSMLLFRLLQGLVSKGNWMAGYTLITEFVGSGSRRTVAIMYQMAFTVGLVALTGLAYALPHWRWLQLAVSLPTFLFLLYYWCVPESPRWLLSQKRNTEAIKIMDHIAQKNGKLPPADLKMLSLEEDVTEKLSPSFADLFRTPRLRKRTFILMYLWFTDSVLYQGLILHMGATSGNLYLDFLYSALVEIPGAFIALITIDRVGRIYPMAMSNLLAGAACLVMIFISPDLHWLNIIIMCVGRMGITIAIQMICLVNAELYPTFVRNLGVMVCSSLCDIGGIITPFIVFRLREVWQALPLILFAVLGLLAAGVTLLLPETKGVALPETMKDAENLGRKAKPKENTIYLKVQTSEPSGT
Briefly: TP_TRANSPORTER: inhibition of TEA uptake in OCT1-expressing HeLa cells.

In general, IC50 refers to the concentration at which inhibition is half-maximal. A lower IC50 goes with inhibition by little substance.

In turn, `CN(C)CCCN1c2ccccc2Sc2ccc(Cl)cc21` [CHLORPROMAZINE] registered an IC50 of 4.3 µM.
